US11034666B2, “Anti-inflammatory and antitumor 2-oxothiazoles and 2-oxothiophenes compounds” (Avexxin AS, priority 2013, dated 2021)
Blank lines part the entries; values can stand above or below the compound they belong to.

What was measured:
human GVIA iPLA2 = target: T1, human GVIA iPLA2 (Homo sapiens, UniProt O60733); assay: In vitro mixed micelle assay, GVIA iPLA2; format: biochemical; settings: for inhibition at 0.091 mole fraction: mixed micelles, 0.091 mole fraction of inhibitor, Table 6, read-out: GVIA iPLA2 % Inhib
T1 sequence (O60733 1-806): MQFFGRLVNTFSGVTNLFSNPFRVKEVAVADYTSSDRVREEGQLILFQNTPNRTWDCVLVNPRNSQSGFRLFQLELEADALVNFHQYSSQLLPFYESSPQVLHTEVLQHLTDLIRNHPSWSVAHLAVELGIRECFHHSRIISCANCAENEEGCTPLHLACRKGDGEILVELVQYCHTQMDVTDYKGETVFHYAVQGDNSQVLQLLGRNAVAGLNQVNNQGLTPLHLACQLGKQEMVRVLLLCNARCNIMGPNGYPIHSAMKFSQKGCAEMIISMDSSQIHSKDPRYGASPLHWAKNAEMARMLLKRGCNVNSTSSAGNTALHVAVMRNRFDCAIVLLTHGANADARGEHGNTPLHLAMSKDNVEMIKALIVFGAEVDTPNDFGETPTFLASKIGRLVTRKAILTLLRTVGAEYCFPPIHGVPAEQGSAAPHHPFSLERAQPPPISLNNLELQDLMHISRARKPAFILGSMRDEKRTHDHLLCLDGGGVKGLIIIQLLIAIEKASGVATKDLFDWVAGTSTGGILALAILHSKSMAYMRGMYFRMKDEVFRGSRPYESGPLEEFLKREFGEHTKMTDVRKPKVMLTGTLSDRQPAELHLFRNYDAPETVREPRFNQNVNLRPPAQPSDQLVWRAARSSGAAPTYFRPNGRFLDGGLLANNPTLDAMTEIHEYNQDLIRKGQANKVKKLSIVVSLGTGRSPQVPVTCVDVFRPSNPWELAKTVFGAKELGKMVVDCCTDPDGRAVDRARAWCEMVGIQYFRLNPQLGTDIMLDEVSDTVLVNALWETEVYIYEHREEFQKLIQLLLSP
Procedure: At first, the percent of inhibition for each PLA2 enzyme at 0.091 mole fraction of each inhibitor was determined. […] The XI(50) is the mole fraction of the inhibitor in the total substrate interface required to inhibit the enzyme activity by 50%. […] (ii) GVI iPLA2 substrate mixed-micelles were composed of 400 μM Triton X-100, 98.3 μM PAPC, and 1.7 μM ^14C-labeled PAPC in buffer containing 100 mM HEPES, pH 7.5, 2 mM ATP, and 4 mM DTT; (iii) GV sPLA2 substrate mixed-micelles were composed of 400 μM Triton X-100, 98.3 μM PAPC, and 1.7 μM ^14C-labeled PAPC in buffer containing 50 mMTris, pH 8.0, and 5 mM […] CaCl2.

PGE2 [1] = assay: PGE2-assay (Tables 2 and 4); format: cell-based; settings: Table 2; head says % inhibition, cells print μM
Source text: Experimental procedures suitable for the formation and testing of these compounds can be found in WO2011/039365 as well as references cited therein.

PGE2 [2] = assay: Plasma PGE2 EIA, therapeutic CIA study; format: in vivo, male DBA/1 mice
Procedure: There were no significant differences between the treatment groups (p>0.05).
(§1) PGE2 EIA analysis of blood plasma from the prophylactic and therapeutic CIA studies was performed according to kit protocol. Plasma samples were diluted 1:1000-1:6000 in EIA buffer and allowed to hybridize over-night (18 hrs, 4° C.). The plate was read using a Multiscan plate reader (Ascent Labsystems) (OD550 nm). The corresponding Ascent software for Multiscan, Version 2.4.1 was used to obtain the data. PGE2 levels for all treatments are shown relative to the DMSO-treated vehicle arthritic mice (n=10-11 mice in each category±SD).
(§2) For the prophylactic and the therapeutic studies, CIA was induced in male DBA/1 mice (except naïve mice) by immunization with 0.1 mL emulsion containing an equal volume of bovine type II collagen solution (2 mg/mL) and Freuds Complete Adjuvant at the tail base. The first injection was given on Day 0 and the second injection as booster was given on Day 21 (41-43). COMPOUND A, vehicle (DMSO) and MTX (0.3 mg/kg) were administered daily, Enbrel (25 mg/kg) was administrated twice a week. For the prophylactic study, treatment started one hour before the second collagen injection and continued for 21 days except for the histology groups that were sacrificed at Day 13 ([…]). For the therapeutic study, treatment started at Day 28 and continued for 14 days.

MAS98.12 xenograft = assay: Patient-derived basal-like breast cancer xenograft, long-term treatment; format: in vivo, mouse
Procedure: As described more fully below, we conducted a study in a patient-derived xenograft model of basal-like breast cancer, which is responsive to […], is highly vascularised and has a high expression of cPLA2. The mice received 30 mg Compound A/kg bw by ip. injection daily for a 7 days, then every second day for 14 more days. A group of control mice received DMSO only. Tumor volumes were measured throughout the study period.
Mouse model: MAS98.12. This model is established from a primary breast carcinoma at the Institute for Cancer Research, OUS [10]. The MR Cancer Group has previously characterised this model both with respect to metabolic profile, vascularisation, response to antiangiogenic treatment and response to PI3K inhibition. Treatment was initiated when the xenograft tumors had reached a volume of 83±51 mm3 (tumor volume=d1×d2×[…]). The majority of mice had bilateral tumors.
Mice received 30 mg/kg bw COMPOUND A in 50 μl DMSO, through intraperitoneal injection. Control groups received volume-matched, drug-free DMSO injections. Tumor volume measured with electronic callipers from day −3 until the end of the experiment (Day 19).
Arm 2: Long-term treatment One group (n=6, 11 tumors) treated with COMPOUND A daily for 7 days, then every 2nd day for the remainder of the study. Controls (n=6, 10 tumors) treated with drug-free DMSO according to the same protocol. […] Throughout the study, the tumor volume was measured every 2-3 days, and the body weight of the mice was monitored regularly.

PGE2 [3] = assay: Plasma PGE2 EIA, prophylactic CIA study; format: in vivo, male DBA/1 mice
Procedure: PGE2 is recognized as an important contributor to the joint inflammation in rheumatoid arthritis,^60 and we investigated if plasma PGE2 levels were changed in response to treatment. […] There were no significant differences between the treatment groups (p>0.05).
as §1, §2

Compound: CCCCCCCCCCCCOCC(=O)c1nc(CC(=O)OCC)cs1 [Compound X, Ethyl 2-(2-(2-(dodecyloxy)acetyl)thiazol-4-yl)acetate]
inhibition at 0.091 mole fraction (human GVIA iPLA2): 91%

Compound: O=C(COc1ccc(F)cc1)c1nccs1 [Compound C, 2-(4-Fluorophenoxy)-1-(thiazol-2-yl)ethanone]
melting point: 74 to 77 °C
inhibition at 0.091 mole fraction (human GVIA iPLA2): 5%

Compound: CCCCCCCCc1ccc(OCC(=O)c2nc(C(=O)OC)cs2)cc1 [Compound A, Methyl 2-(2-(4-octylphenoxy)acetyl)thiazole-4-carboxylate]
IC50 (PGE2 [1]): ~0.75 µM
plasma PGE2 level (PGE2 [2]; therapeutic CIA study, Compound A 30 mg/kg, Enbrel 25 mg/kg, vehicle 231.1±110, mean ± SD): 139 ± 55 ng/mL
reduction of plasma PGE2 levels (PGE2 [2]; therapeutic mode, vs vehicle): about 40%
tumor volume as % of the control tumors (MAS98.12 xenograft; 30 mg/kg bw ip daily for 7 days, then every second day for 14 more days, end of the study): 36%
tolerability (in words) (MAS98.12 xenograft; 30 mg/kg ip, long-term treatment): well tolerated with no overt adverse effects
body weight (MAS98.12 xenograft; 30 mg/kg ip, Day 5): 24 ± 3 g
body weight (MAS98.12 xenograft; 30 mg/kg ip, Day 19): 27 ± 3 g
maximal tumor diameter (MAS98.12 xenograft; 30 mg/kg ip, Day 19): 10.5 mm
effect on tumor growth (in words) (MAS98.12 xenograft; 30 mg/kg ip, FIG. 1): strong inhibitory effect on tumor growth
tumor volume (MAS98.12 xenograft; 30 mg/kg ip, end of the study (Day 19), control 759±401): 265±138 mm^3
plasma PGE2 level (PGE2 [3]; prophylactic CIA study, Compound A 7.5 mg/kg, MTX 0.3 mg/kg, vehicle 223.4±107, mean ± SD): 139.8 ± 92 ng/mL
reduction of plasma PGE2 levels (PGE2 [3]; prophylactic mode, vs vehicle): about 40%
GVIA iPLA2 % Inhibition (human GVIA iPLA2; Tables 2 and 4): 86.4%
inhibition at 0.091 mole fraction (human GVIA iPLA2): 86%

Compound: CCCCCCCCc1ccc(OCC(=O)c2nc(CC(=O)OCC)cs2)cc1 [Compound Y, Ethyl 2-(2-(2-(4-octylphenoxy)acetyl)thiazol-4-yl)acetate]
inhibition at 0.091 mole fraction (human GVIA iPLA2): 76%

Compound: CCCCCCCCc1ccc(OCC(=O)c2nccs2)cc1 [Compound T, 2-(4-Octylphenoxy)-1-(thiazol-2-yl)ethanone]
inhibition at 0.091 mole fraction (human GVIA iPLA2): 67%

Now from value to compound:

melting point: 77 to 79 °C
inhibition at 0.091 mole fraction (human GVIA iPLA2): 13%
Compound: O=C(COc1ccccc1)c1nccs1 [Compound D, 2-Phenoxy-1-(thiazol-2-yl)ethanone]

IC50 (PGE2 [1]): ~6 µM
melting point: 130 to 133 °C
inhibition at 0.091 mole fraction (human GVIA iPLA2): 23%
Compound: O=C(COc1ccc(-c2ccccc2)cc1)c1nccs1 [Compound B, 2-(Biphenyl-4-yloxy)-1-(thiazol-2-yl)ethanone]

inhibition at 0.091 mole fraction (human GVIA iPLA2): 92%
Compound: CCCCCCCCCCCCOCC(=O)c1nc(C(=O)OCC)cs1 [Compound W, Ethyl 2-(2-(dodecyloxy)acetyl)thiazole-4-carboxylate]
